Source: ChEMBL document CHEMBL1155961, “Novel 4-aryl-pyrido[1,2-c]pyrimidines with dual SSRI and 5-HT1A activity: part 2” (Eur J Med Chem, 2009)
Active and inactive are the calls of the source. No cut-off for these calls is given here.

Assays:
[1] = target: T1, 5-hydroxytryptamine receptor 1A (Rattus norvegicus, UniProt P19327); assay: Displacement of [3H]8-OH-DPAT from 5-HT1A receptor in rat hippocampus; type: tissue-based
T1 sequence (P19327 whole entry): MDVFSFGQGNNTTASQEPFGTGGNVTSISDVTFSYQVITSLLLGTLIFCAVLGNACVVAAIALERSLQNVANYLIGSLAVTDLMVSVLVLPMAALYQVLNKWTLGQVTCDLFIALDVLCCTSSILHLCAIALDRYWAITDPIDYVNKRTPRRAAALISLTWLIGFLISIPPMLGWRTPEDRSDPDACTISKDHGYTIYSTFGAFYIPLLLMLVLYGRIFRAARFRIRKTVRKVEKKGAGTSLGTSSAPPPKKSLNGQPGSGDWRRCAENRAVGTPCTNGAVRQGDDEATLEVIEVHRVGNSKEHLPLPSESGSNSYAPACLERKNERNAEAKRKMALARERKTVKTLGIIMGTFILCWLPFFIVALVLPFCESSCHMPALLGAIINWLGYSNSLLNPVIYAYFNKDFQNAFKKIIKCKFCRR

[2] = target: Sodium-dependent serotonin transporter (Rattus norvegicus, UniProt P31652); assay: Displacement of [3H]citalopram from SERT in rat cerebral cortex by liquid scintillation counting; type: tissue-based
Sequence of Sodium-dependent serotonin transporter (P31652 whole entry): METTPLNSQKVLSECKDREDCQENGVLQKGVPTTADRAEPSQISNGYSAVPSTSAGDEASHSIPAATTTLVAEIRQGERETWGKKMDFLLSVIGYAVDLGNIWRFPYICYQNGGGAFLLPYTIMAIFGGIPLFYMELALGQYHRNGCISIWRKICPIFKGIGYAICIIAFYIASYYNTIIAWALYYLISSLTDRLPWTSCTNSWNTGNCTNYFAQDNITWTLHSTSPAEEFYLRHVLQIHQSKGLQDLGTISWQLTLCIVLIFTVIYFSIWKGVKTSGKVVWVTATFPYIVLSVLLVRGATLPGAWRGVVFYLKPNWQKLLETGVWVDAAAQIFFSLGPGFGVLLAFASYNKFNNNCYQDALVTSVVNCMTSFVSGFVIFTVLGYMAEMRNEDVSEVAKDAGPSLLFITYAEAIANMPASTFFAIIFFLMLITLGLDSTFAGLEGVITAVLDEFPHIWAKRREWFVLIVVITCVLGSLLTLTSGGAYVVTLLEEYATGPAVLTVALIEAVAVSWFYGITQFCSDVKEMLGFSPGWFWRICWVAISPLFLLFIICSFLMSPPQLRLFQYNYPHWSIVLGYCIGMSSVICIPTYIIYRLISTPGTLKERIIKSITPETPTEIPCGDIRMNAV

Mus musculus [3] = assay: Effect on hypothermia in Swiss albino mouse assessed as change in rectal body temperature at 5 mg/kg, ip after 120 mins by inducible hypothermia test; type: functional, organism-based; set-up: dose 5 mg/kg
Mus musculus [4] = assay: Effect on hypothermia in Swiss albino mouse assessed as change in rectal body temperature at 5 mg/kg, ip after 90 mins by inducible hypothermia test; type: functional, organism-based; set-up: dose 5 mg/kg
Mus musculus [5] = assay: Effect on hypothermia in Swiss albino mouse assessed as change in rectal body temperature at 5 mg/kg, ip after 60 mins by inducible hypothermia test; type: functional, organism-based; set-up: dose 5 mg/kg
Mus musculus [6] = assay: Effect on hypothermia in Swiss albino mouse assessed as change in rectal body temperature at 5 mg/kg, ip after 30 mins by inducible hypothermia test; type: functional, organism-based; set-up: dose 5 mg/kg
Mus musculus [7] = species: Mus musculus; settings: Swiss albino, 2.5 mg/kg
Description: Effect on hypothermia in Swiss albino mouse assessed as change in rectal body temperature at 2.5 mg/kg, ip after 120 mins by inducible hypothermia test

Mus musculus [8] = species: Mus musculus; settings: Swiss albino, 2.5 mg/kg; remark: listed apart in the source
Description: Effect on hypothermia in Swiss albino mouse assessed as change in rectal body temperature at 2.5 mg/kg, ip after 60 mins by inducible hypothermia test

Mus musculus [9] = species: Mus musculus; settings: Swiss albino, 2.5 mg/kg; remark: listed apart in the source
Description: Effect on hypothermia in Swiss albino mouse assessed as change in rectal body temperature at 2.5 mg/kg, ip after 90 mins by inducible hypothermia test

Mus musculus [10] = species: Mus musculus; settings: Swiss albino, 2.5 mg/kg; remark: listed apart in the source
Description: Effect on hypothermia in Swiss albino mouse assessed as change in rectal body temperature at 2.5 mg/kg, ip after 30 mins by inducible hypothermia test

Mus musculus [11] = species: Mus musculus; settings: Swiss albino, 1.25 mg/kg
Description: Effect on hypothermia in Swiss albino mouse assessed as change in rectal body temperature at 1.25 mg/kg, ip after 120 mins by inducible hypothermia test

Mus musculus [12] = species: Mus musculus; settings: Swiss albino, 1.25 mg/kg; remark: listed apart in the source
Description: Effect on hypothermia in Swiss albino mouse assessed as change in rectal body temperature at 1.25 mg/kg, ip after 90 mins by inducible hypothermia test

Mus musculus [13] = species: Mus musculus; settings: Swiss albino, 1.25 mg/kg; remark: listed apart in the source
Description: Effect on hypothermia in Swiss albino mouse assessed as change in rectal body temperature at 1.25 mg/kg, ip after 60 mins by inducible hypothermia test

Mus musculus [14] = species: Mus musculus; settings: Swiss albino, 1.25 mg/kg; remark: listed apart in the source
Description: Effect on hypothermia in Swiss albino mouse assessed as change in rectal body temperature at 1.25 mg/kg, ip after 30 mins by inducible hypothermia test

Mus musculus [15] = species: Mus musculus; settings: Swiss albino, 5 mg/kg
Description: Effect on hypothermia in Swiss albino mouse assessed as change in rectal body temperature at 5 mg/kg, ip dosed 15 mins after 0.1 mg/kg, sc WAY 100635 challenge measured after 60 mins by inducible hypothermia test

Mus musculus [16] = species: Mus musculus; settings: Swiss albino, 5 mg/kg; remark: listed apart in the source
Description: Effect on hypothermia in Swiss albino mouse assessed as change in rectal body temperature at 5 mg/kg, ip dosed 15 mins after 0.1 mg/kg, sc WAY 100635 challenge measured after 30 mins by inducible hypothermia test

Mus musculus [17] = assay: Effect on hypothermia in Swiss albino mouse assessed as change in rectal body temperature at 20 mg/kg, ip after 120 mins by inducible hypothermia test; type: functional, organism-based; set-up: dose 20 mg/kg
Mus musculus [18] = assay: Effect on hypothermia in Swiss albino mouse assessed as change in rectal body temperature at 20 mg/kg, ip after 90 mins by inducible hypothermia test; type: functional, organism-based; set-up: dose 20 mg/kg
Mus musculus [19] = assay: Effect on hypothermia in Swiss albino mouse assessed as change in rectal body temperature at 20 mg/kg, ip after 30 mins by inducible hypothermia test; type: functional, organism-based; set-up: dose 20 mg/kg
Mus musculus [20] = assay: Effect on hypothermia in Swiss albino mouse assessed as change in rectal body temperature at 20 mg/kg, ip after 60 mins by inducible hypothermia test; type: functional, organism-based; set-up: dose 20 mg/kg
Mus musculus [21] = assay: Effect on hypothermia in Swiss albino mouse assessed as change in rectal body temperature at 10 mg/kg, ip after 120 mins by inducible hypothermia test; type: functional, organism-based; set-up: dose 10 mg/kg
Mus musculus [22] = assay: Effect on hypothermia in Swiss albino mouse assessed as change in rectal body temperature at 10 mg/kg, ip after 90 mins by inducible hypothermia test; type: functional, organism-based; set-up: dose 10 mg/kg
Mus musculus [23] = assay: Effect on hypothermia in Swiss albino mouse assessed as change in rectal body temperature at 10 mg/kg, ip after 60 mins by inducible hypothermia test; type: functional, organism-based; set-up: dose 10 mg/kg
Mus musculus [24] = assay: Effect on hypothermia in Swiss albino mouse assessed as change in rectal body temperature at 10 mg/kg, ip after 30 mins by inducible hypothermia test; type: functional, organism-based; set-up: dose 10 mg/kg
Mus musculus [25] = assay: Antidepressant activity in Swiss albino mouse assessed as reduction of immobility time at 10 mg/kg, ip administered 30 mins before test measured 6 mins test session after 2 mins habituation period by forced swimming test; type: functional
Mus musculus [26] = assay: Antidepressant activity in Swiss albino mouse assessed as reduction of immobility time at 20 mg/kg, ip administered 30 mins before test measured 6 mins test session after 2 mins habituation period by forced swimming test; type: functional
Mus musculus [27] = assay: Effect on hypothermia in Swiss albino mouse assessed as change in rectal body temperature at 20 mg/kg, ip dosed 15 mins after 0.1 mg/kg, sc WAY 100635 challenge measured after 60 mins by inducible hypothermia test; type: functional, organism-based
Mus musculus [28] = assay: Effect on hypothermia in Swiss albino mouse assessed as change in rectal body temperature at 20 mg/kg, ip dosed 15 mins after 0.1 mg/kg, sc WAY 100635 challenge measured after 30 mins by inducible hypothermia test; type: functional, organism-based
Mus musculus [29] = assay: Effect on spontaneous locomotor activity in Swiss albino mouse assessed as number of light-beam crossings in actiometers pretreated for 30 mins at 20 mg/kg, ip measured during 30 mins post drug dose; type: functional; settings: route intraperitoneal
Mus musculus [30] = assay: Effect on spontaneous locomotor activity in Swiss albino mouse assessed as number of light-beam crossings in actiometers pretreated for 30 mins at 20 mg/kg, ip measured during 6 mins post drug dose; type: functional; settings: route intraperitoneal

`Cc1[nH]c2ccccc2c1C1CCN(CCCCn2c(=O)c(-c3ccc(F)cc3)c3n(c2=O)CCCC3)CC1` showed a Ki [1] of 3.2 µM and a Ki [2] of 0.116 µM.

With `COc1ccc(-c2c3n(c(=O)n(CCCCN4CCC(c5c[nH]c6ccc(OC)cc56)CC4)c2=O)CCCC3)cc1` the deltaT (Mus musculus [3]) was -0.1 °C, the deltaT (Mus musculus [4]) was -0.3 °C and the deltaT (Mus musculus [5]) was -0.5 °C. It also gave a deltaT (Mus musculus [6]) of -1.1 °C, a Ki [1] of 0.0104 µM and a Ki [2] of 0.0835 µM. For the same molecule, the deltaT (Mus musculus [7]) was -0.5 °C, the deltaT (Mus musculus [8]) was -0.6 °C and the deltaT (Mus musculus [9]) was -0.6 °C. For the same molecule, the deltaT (Mus musculus [10]) was -0.8 °C, the deltaT (Mus musculus [11]) was -0.2 °C and the deltaT (Mus musculus [12]) was -0.4 °C. The deltaT (Mus musculus [13]) was -0.4 °C, the deltaT (Mus musculus [14]) was -0.3 °C and the deltaT (Mus musculus [15]) was -0.9 °C. For the same molecule, the deltaT (Mus musculus [16]) was -1.2 °C.

In the case of `Cc1[nH]c2ccccc2c1C1CCN(CCCCn2c(=O)c(-c3ccccc3)c3n(c2=O)CCCC3)CC1`, the Ki [1] is reported as 1.4 µM and the Ki [2] is reported as 0.274 µM.

`Cc1ccc(-c2c3n(c(=O)n(CCCCN4CCC(c5c(C)[nH]c6ccccc56)CC4)c2=O)CCCC3)cc1` gave a Ki [1] of 1.5 µM and a Ki [2] of 0.115 µM.

`Cc1[nH]c2ccccc2c1C1CCN(CCCCn2c(=O)c(-c3ccc(Cl)cc3)c3n(c2=O)CCCC3)CC1` gave a Ki [1] of 1.5 µM and a Ki [2] of 0.46 µM.

`COc1ccc(-c2c3n(c(=O)n(CCCCN4CCC(c5c(C)[nH]c6ccccc56)CC4)c2=O)CCCC3)cc1` showed a Ki [2] of 0.203 µM.

Molecule `COc1ccc2[nH]cc(C3CCN(CCCCn4c(=O)c(-c5ccc(C)cc5)c5n(c4=O)CCCC5)CC3)c2c1` has a deltaT (Mus musculus [17]) of -0.7 °C, a deltaT (Mus musculus [18]) of -0.8 °C and a deltaT (Mus musculus [19]) of -1.3 °C. The deltaT (Mus musculus [20]) was -1.3 °C, the deltaT (Mus musculus [21]) was -0.1 °C and the deltaT (Mus musculus [22]) was -0.2 °C. It also gave a deltaT (Mus musculus [23]) of -0.4 °C, a deltaT (Mus musculus [24]) of -0.6 °C and a deltaT (Mus musculus [3]) of -0.1 °C. It also gave a deltaT (Mus musculus [4]) of -0.1 °C, a deltaT (Mus musculus [5]) of -0.2 °C and a deltaT (Mus musculus [6]) of -0.3 °C. The Ki [1] was 0.023 µM, the Ki [2] was 0.136 µM and the Activity (Mus musculus [25]) was “inactive”. For the same molecule, the Activity (Mus musculus [26]) was “inactive”, the deltaT (Mus musculus [27]) was -0.4 °C and the deltaT (Mus musculus [28]) was -0.4 °C.

`COc1ccc2[nH]cc(C3CCN(CCCCn4c(=O)c(-c5ccc(Cl)cc5)c5n(c4=O)CCCC5)CC3)c2c1` gave a Ki [1] of 0.0146 µM and a Ki [2] of 0.222 µM.

For `COc1ccc2[nH]cc(C3CCN(CCCCn4c(=O)c(-c5ccccc5F)c5n(c4=O)CCCC5)CC3)c2c1`, the deltaT (Mus musculus [17]) was -0.7 °C, the deltaT (Mus musculus [18]) was -0.8 °C and the deltaT (Mus musculus [19]) was -1.2 °C. For the same molecule, the deltaT (Mus musculus [20]) was -1 °C, the deltaT (Mus musculus [21]) was -0.4 °C and the deltaT (Mus musculus [22]) was -0.6 °C. The deltaT (Mus musculus [23]) was -0.8 °C, the deltaT (Mus musculus [24]) was -0.7 °C and the deltaT (Mus musculus [3]) was -0.3 °C. It also gave a deltaT (Mus musculus [4]) of -0.4 °C, a deltaT (Mus musculus [5]) of -0.6 °C and a deltaT (Mus musculus [6]) of -0.7 °C. For the same molecule, the Ki [1] was 0.0456 µM, the Ki [2] was 0.184 µM and the Activity (Mus musculus [25]) was “inactive”. It also gave an Activity (Mus musculus [26]; route intraperitoneal) of 26%, an Activity (Mus musculus [29]) of 520 and an Activity (Mus musculus [30]) of 272. For the same molecule, the deltaT (Mus musculus [27]) was -0.4 °C and the deltaT (Mus musculus [28]) was -0.5 °C.

`O=c1c(-c2ccccc2Cl)c2n(c(=O)n1CCCCN1CCC(c3c[nH]c4ccccc34)CC1)CCCC2` showed a Ki [1] of 0.0362 µM and a Ki [2] of 0.101 µM.
